Each structure is given as a SMILES string.

One experiment concerns the target Aurora-B (Homo sapiens, UniProt Q96GD4). Nature of the experiment: Aurora-B enzyme assay (identical protocol as Aurora-A). The experiment is classed as biochemical. To be noted: IC50 range class; read-out: Inhibitor Activity vs Aurora-B. As to the method: The ability of compounds to inhibit Aurora-A activity was measured using a simple microplate assay for Aurora-A activity, also suitable for high-throughput screening. In brief, γ-^33P-ATP and Aurora-A were incubated in a myelin basic protein (MBP)-coated Flashplate® to generate a scintillation signal. The plates were formatted to contain the inhibitor, controls, positive control (staurosporin) and blanks. After incubation at 37° C. for 1 hour and a subsequent wash procedure, the plates were read on a TopCount-NXT™.
IC50 values were determined by non-linear regression analysis, after fitting the data point results to the equation for sigmoidal dose response with variable slope (% activity against log concentration of compound), using Graphpad Prism software.
The Aurora-B enzyme assay follows the identical protocol as Aurora-A.

The next experiment concerns U937 cell line. Put plainly: Cell inhibition assay (SRB cell viability), U937. In kind it is cell-based. To be noted: Homo sapiens, U-937, IC50 range class, 72 h, read-out: Inhibitor Activity vs U937 cell line. How it is done:
(§1) The corresponding cancer cell lines (U937, HCT 116 and HUT) growing in log phase were harvested and seeded at 1000 cells/well (200 ul final volume) into 96-well tissue culture plates. Following 24 h of cell growth cells were treated with compounds (final concentration of 20 uM). Plates were then re-incubated for a further 72 h before a sulphorhodamine B (SRB) cell viability assay was conducted according to Skehan 1990 J Natl Canc Inst 82, 1107-1112.
(§2) Data were expressed as a percentage inhibition of the control, measured in the absence of inhibitor, as follows: — % inhibition=100−((S^i/S^o)×100) where S^i is the signal in the presence of inhibitor and S^o is the signal in the presence of DMSO.
(§3) IC50 values were determined by non-linear regression analysis, after fitting the results of eight data points to the equation for sigmoidal dose response with variable slope (% activity against log concentration of compound), using Graphpad Prism software.

The subject of another experiment is HCT 116 cell line. Put plainly: Cell inhibition assay (SRB cell viability), HCT 116. The experiment is classed as cell-based. The note with it: Homo sapiens, IC50 range class, 72 h, read-out: Inhibitor Activity vs HCT 116 cell line. As to the method: as §1, §2, §3
For the next experiment, the system named is HUT cell line. Put plainly: Cell inhibition assay (SRB cell viability), HUT. The experiment is classed as cell-based. To be noted: IC50 range class, 72 h, read-out: Inhibitor Activity vs HUT cell line. How it is done: as §1, §2, §3

Sequence of Aurora-B (Q96GD4 whole entry): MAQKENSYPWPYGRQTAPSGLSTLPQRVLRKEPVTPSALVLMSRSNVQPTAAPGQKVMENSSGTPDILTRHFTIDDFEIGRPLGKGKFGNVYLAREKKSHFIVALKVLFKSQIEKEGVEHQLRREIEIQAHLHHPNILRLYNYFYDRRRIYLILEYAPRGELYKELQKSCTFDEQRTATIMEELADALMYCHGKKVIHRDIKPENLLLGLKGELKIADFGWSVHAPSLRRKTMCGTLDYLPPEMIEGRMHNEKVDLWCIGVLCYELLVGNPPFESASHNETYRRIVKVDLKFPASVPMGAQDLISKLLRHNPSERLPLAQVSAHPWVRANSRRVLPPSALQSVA

`COc1cc2c(Nc3cnn(CC(=O)Nc4ccccc4)c3)ccnc2cc1OCC[C@H](N)C(=O)O` [Example 23, (S)-2-Amino-4-[6-methoxy-4-(1-phenylcarbamoylmethyl-1H-pyrazol-4-ylamino)-quinolin-7-yloxy]-butyric acid]: at Aurora-B, the IC50 was more than 5 µM.

With `COc1cc2nccc(Oc3ccc(NC(=O)c4ccccc4)cc3)c2cc1OCC[C@H](N)C(=O)OC1CCCC1` [Example 35, (S)-2-Amino-4-[4-(4-benzoylamino-phenoxy)-7-methoxy-quinolin-6-yloxy]-butyric acid cyclopentyl ester], the IC50 was more than 5 µM on Aurora-B, less than 1 µM in the experiment on U937 cell line, 1 to 5 µM in the experiment on HCT 116 cell line and 1 to 5 µM in the experiment with HUT cell line.

For `COc1cc2c(Oc3ccc(NC(=O)c4ccccc4)cc3)ccnc2cc1OCC[C@H](NC(C)=O)C(=O)OC1CCCC1` [Example 42, (S)-2-Acetylamino-4-[4-(4-benzoylamino-phenoxy)-6-methoxy-quinolin-7-yloxy]-butyric acid cyclopentyl ester], the IC50 on Aurora-B was 2 to 5 µM; with U937 cell line, less than 1 µM; in the experiment on HCT 116 cell line it was less than 1 µM; in the experiment with HUT cell line it was less than 1 µM.

On to `COc1cc2c(Oc3ccc(NC(=O)c4cccc(F)c4)cc3)ccnc2cc1OCC[C@H](N)C(=O)O` [Example 56, (S)-2-Amino-4-{4-[4-(3-fluoro-benzoylamino)-phenoxy]-6-methoxy-quinolin-7-yloxy}-butyric acid], for which the IC50 at Aurora-B is less than 2 µM.

As to `COc1cc2c(Oc3ccc(NC(=O)c4ccc(OC(F)(F)F)cc4)cc3)ccnc2cc1OCC[C@H](N)C(=O)O` [Example 71, (S)-2-Amino-4-{6-methoxy-4-[4-(4-trifluoromethoxy-benzoylamino)-phenoxy]-quinolin-7-yloxy}-butyric acid], at Aurora-B, the IC50 is 2 to 5 µM.

On to `COc1cc2c(Oc3ccc(NS(=O)(=O)c4ccccc4)cc3)ccnc2cc1OCC[C@H](N)C(=O)O` [Example 74, (S)-2-Amino-4-[4-(4-benzenesulfonylamino-phenoxy)-6-methoxy-quinolin-7-yloxy]-butyric acid], for which the IC50 at Aurora-B lay in the range of 2 to 5 µM.

On to `COc1cc2c(Oc3ccc(-c4noc(-c5ccccc5)n4)cc3)ccnc2cc1OCC[C@@H](N)C(=O)OC1CCCC1` [Example 107, (R)-2-Amino-4-{6-methoxy-4-[4-(5-phenyl-[1,2,4]oxadiazol-3-yl)-phenoxy]-quinolin-7-yloxy}-butyric acid cyclopentyl ester], for which the IC50 in the experiment with U937 cell line, in the experiment on HCT 116 cell line and with HUT cell line was more than 5 µM in each case.

For the compound `COc1cc2c(Oc3ccc(NC(=O)Nc4ccc(C(F)(F)F)cc4)cc3F)ccnc2cc1OCC[C@@H](N)C(=O)OC1CCCC1` [Example 108, (R)-2-Amino-4-(4-{2-fluoro-4-[3-(4-trifluoromethyl-phenyl)-ureido]-phenoxy}-6-methoxy-quinolin-7-yloxy)-butyric acid cyclopentyl ester], the IC50 in the experiment with U937 cell line, in the experiment on HCT 116 cell line and in the experiment on HUT cell line was less than 1 µM each time.

Regarding `COc1cc2c(Oc3ccc(NC(=O)Nc4ccc(C(F)(F)F)cc4)cc3)ccnc2cc1OCCC[C@H](N)C(=O)OC1CCCC1` [Example 113, (S)-2-Amino-5-(6-methoxy-4-{4-[3-(4-trifluoromethyl-phenyl)-ureido]-phenoxy}-quinolin-7-yloxy)-pentanoic acid cyclopentyl ester], the IC50 in the experiment with U937 cell line, with HCT 116 cell line and with HUT cell line was less than 1 µM throughout.

In the case of `COc1cc2c(Sc3ccc(NC(=O)Nc4ccc(C(F)(F)F)cc4)cc3)ccnc2cc1OCCC[C@@H](N)C(=O)OC1CCCC1` [Example 121, (R)-2-Amino-5-(6-methoxy-4-{4-[3-(4-trifluoromethyl-phenyl)-ureido]-phenylsulfanyl}-quinolin-7-yloxy)-pentanoic acid cyclopentyl ester], the IC50 in the experiment on U937 cell line, in the experiment on HCT 116 cell line and in the experiment with HUT cell line was less than 1 µM throughout.

As to `COc1cc2c(Oc3ccc(NC(=O)Nc4ccc(C(F)(F)F)cc4)cc3F)ccnc2cc1OCCC[C@@H](N)C(=O)OC1CCCC1` [Example 123, (R)-2-Amino-5-(4-{2-fluoro-4-[3-(4-trifluoromethyl-phenyl)-ureido]-phenoxy}-6-methoxy-quinolin-7-yloxy)-pentanoic acid cyclopentyl ester], the IC50 in the experiment with U937 cell line, with HCT 116 cell line and with HUT cell line was less than 1 µM in each case.

For the compound `COc1cc2c(Oc3ccc(NC(=O)c4ccc(C(F)(F)F)cc4)cc3F)ccnc2cc1OCC[C@H](N)C(=O)OC1CCCC1` [Example 127, (S)-2-Amino-4-{4-[2-fluoro-4-(4-trifluoromethyl-benzoylamino)-phenoxy]-6-methoxy-quinolin-7-yloxy}-butyric acid cyclopentyl ester], the IC50 in the experiment on U937 cell line, with HCT 116 cell line and in the experiment with HUT cell line was less than 1 µM throughout.

As for `COc1cc2c(Oc3ccc(NC(=O)c4ccccc4)c(F)c3)ccnc2cc1OCC[C@H](N)C(=O)OC1CCCC1` [Example 130, (S)-2-Amino-4-[4-(4-benzoylamino-3-fluoro-phenoxy)-6-methoxy-quinolin-7-yloxy]-butyric acid cyclopentyl ester], the IC50 in the experiment on U937 cell line, in the experiment on HCT 116 cell line and in the experiment with HUT cell line was less than 1 µM in each case.

Take `COc1cc2c(Oc3ccc(NC(=O)c4ccccc4)cc3OC)ccnc2cc1OCC[C@H](N)C(=O)OC1CCCC1` [Example 132, (S)-2-Amino-4-[4-(4-benzoylamino-2-methoxy-phenoxy)-6-methoxy-quinolin-7-yloxy]-butyric acid cyclopentyl ester]: the IC50 in the experiment on U937 cell line was less than 1 µM; with HCT 116 cell line, 1 to 5 µM; in the experiment with HUT cell line it was 1 to 5 µM.

Turning to `COc1cc2c(Oc3ccc(NC(=O)c4ccccc4)cn3)ccnc2cc1OCC[C@H](N)C(=O)OC1CCCC1` [Example 134], the IC50 in the experiment with U937 cell line, in the experiment on HCT 116 cell line and with HUT cell line was less than 1 µM throughout.

`COc1cc2c(Oc3ccc(NC(=O)c4ccccc4)cc3)ccnc2cc1OC[C@@H]1CCCN1CC[C@H](N)C(=O)OC1CCCC1` [Example 135, (S)-2-Amino-4-{(S)-2-[4-(4-benzoylamino-phenoxy)-6-methoxy-quinolin-7-yloxymethyl]-pyrrolidin-1-yl}-butyric acid cyclopentyl ester]: the IC50 in the experiment with U937 cell line was less than 1 µM; with HCT 116 cell line, 1 to 5 µM; in the experiment with HUT cell line it was 1 to 5 µM.

`COc1cc2c(Oc3ccc(NC(=O)c4ccccc4)cc3)ccnc2cc1OCC1CCN(CC[C@H](N)C(=O)OC2CCCC2)CC1` [Example 136, (S)-2-Amino-4-{4-[4-(4-benzoylamino-phenoxy)-6-methoxy-quinolin-7-yloxymethyl]-piperidin-1-yl}-butyric acid cyclopentyl ester]: the IC50 in the experiment on U937 cell line, with HCT 116 cell line and with HUT cell line was less than 1 µM each time.

`COc1cc2c(Oc3ccc(NC(=O)c4ccccc4)cc3)ccnc2cc1OC1CCN(CC[C@H](N)C(=O)OC2CCCC2)C1` (stereo partly drawn) [Example 137, (S)-2-Amino-4-{3-[4-(4-benzoylamino-phenoxy)-6-methoxy-quinolin-7-yloxy]-pyrrolidin-1-yl}-butyric acid cyclopentyl ester]: the results for the IC50 in the experiment on U937 cell line, in the experiment with HCT 116 cell line and with HUT cell line were less than 1 µM, 1 to 5 µM and less than 1 µM, respectively.

Regarding `COc1cc2c(Oc3ccc(NCc4ccccc4)cc3)ccnc2cc1OCC[C@H](N)C(=O)OC1CCCC1` [Example 138, (S)-2-Amino-4-[4-(4-benzylamino-phenoxy)-6-methoxy-quinolin-7-yloxy]-butyric acid cyclopentyl ester], the IC50 in the experiment on U937 cell line is less than 1 µM; in the experiment with HCT 116 cell line, 1 to 5 µM; with HUT cell line it was less than 1 µM.

On to `COc1cc2c(Oc3ccc(CC(=O)c4ccccc4)cc3)ccnc2cc1OCC[C@H](N)C(=O)OC1CCCC1` [Example 140, (S)-2-Amino-4-{6-methoxy-4-[4-(2-oxo-2-phenyl-ethyl)-phenoxy]-quinolin-7-yloxy}-butyric acid cyclopentyl ester], for which the IC50 in the experiment with U937 cell line was less than 1 µM; in the experiment on HCT 116 cell line, 1 to 5 µM; in the experiment on HUT cell line, less than 1 µM.

Regarding `COc1cc2c(Oc3ccc(CNC(=O)c4ccccc4)cc3)ccnc2cc1OCC[C@H](N)C(=O)OC1CCCC1` [Example 141, (S)-2-Amino-4-{4-[4-(benzoylamino-methyl)-phenoxy]-6-methoxy-quinolin-7-yloxy}-butyric acid cyclopentyl ester], the IC50 in the experiment with U937 cell line, in the experiment on HCT 116 cell line and in the experiment with HUT cell line was less than 1 µM each time.

With `COc1cc2c(Nc3cc(C)[nH]n3)nc(Sc3ccccc3)nc2cc1OCC[C@H](N)C(=O)OC1CCCC1` [Example 143, (S)-2-Amino-4-[6-methoxy-4-(5-methyl-1H-pyrazol-3-ylamino)-2-phenylsulfanyl-quinazolin-7-yloxy]-butyric acid cyclopentyl ester], the IC50 was 1 to 5 µM with U937 cell line, more than 5 µM in the experiment with HCT 116 cell line and 1 to 5 µM with HUT cell line.

Values taken from US8148531B2 (Chroma Therapeutics Ltd., priority 2005, dated 2012).
